{"source": "PubChem BioAssay (NCI)", "test_in_all_cases": "NCI anticancer screen, dose series, 48 h", "key": {"SNB-75 CNS": {"test_system": "SNB-75 CNS"}, "HCC-2998 colon": {"test_system": "HCC-2998 colon"}, "UACC-62 melanoma": {"test_system": "UACC-62 melanoma"}, "U251 CNS": {"test_system": "U251 CNS"}, "SW-620 colon": {"test_system": "SW-620 colon"}, "PC-3 prostate": {"test_system": "PC-3 prostate"}, "KM12 colon": {"test_system": "KM12 colon"}, "OVCAR-4 ovarian": {"test_system": "OVCAR-4 ovarian"}, "SK-OV-3 ovarian": {"test_system": "SK-OV-3 ovarian"}, "LOX IMVI melanoma": {"test_system": "LOX IMVI melanoma"}}, "note": "Values joined by “and” are separate entries in the source; they are usually repeats but may differ in a detail not shown here. Identical values can stand only once.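 Test compounds were applied to cells in 96-well plates for 48 hours at 5 doses. The concentration for 50% growth inhibition is given as GI50. The concentration for full growth arrest is given as TGI.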"}
{"smiles": "CCCCCCCCCCCCCCCCP(=O)(O)OP(=O)(O)OCC1OC(n2ccc(N)nc2=O)C(O)C1O", "note": "(configuration not stated)", "values": [{"measurement": "TGI", "setting": "SNB-75 CNS", "value": "60.6 µM and 45.8 µM"}, {"measurement": "GI50", "setting": "HCC-2998 colon", "value": "99.7 µM and 17 µM"}, {"measurement": "TGI", "setting": "HCC-2998 colon", "value": "> 100 µM and 91.2 µM"}, {"measurement": "GI50", "setting": "UACC-62 melanoma", "value": "44.5 µM and 9.63 µM"}, {"measurement": "TGI", "setting": "UACC-62 melanoma", "value": "> 100", "unit": "µM"}, {"measurement": "GI50", "setting": "U251 CNS", "value": "43.1 µM and 13.5 µM"}, {"measurement": "TGI", "setting": "U251 CNS", "value": "> 100 µM and 38 µM"}, {"measurement": "GI50", "setting": "SW-620 colon", "value": "> 100 µM and 14.4 µM"}, {"measurement": "TGI", "setting": "SW-620 colon", "value": "> 100 µM and 59 µM"}, {"measurement": "GI50", "setting": "PC-3 prostate", "value": "37.8 µM and 10.8 µM"}, {"measurement": "TGI", "setting": "PC-3 prostate", "value": "> 100", "unit": "µM"}, {"measurement": "TGI", "setting": "KM12 colon", "value": "> 100", "unit": "µM"}, {"measurement": "GI50", "setting": "OVCAR-4 ovarian", "value": "91.4 µM and 43.8 µM"}, {"measurement": "TGI", "setting": "OVCAR-4 ovarian", "value": "> 100", "unit": "µM"}, {"measurement": "GI50", "setting": "SK-OV-3 ovarian", "value": "> 100 µM and 11 µM"}, {"measurement": "TGI", "setting": "SK-OV-3 ovarian", "value": "> 100 µM and 72.6 µM"}, {"measurement": "TGI", "setting": "LOX IMVI melanoma", "value": "> 100", "unit": "µM"}]}
{"smiles": "O=C1/C(=C/c2cccc(Oc3ccccc3)c2)N=C(c2ccccc2)N1c1nc2ccc(Sc3ccccc3)cc2[nH]1", "values": [{"measurement": "TGI", "setting": "SNB-75 CNS", "value": 60.4, "unit": "µM"}, {"measurement": "TGI", "setting": "HCC-2998 colon", "value": 26.3, "unit": "µM"}, {"measurement": "TGI", "setting": "UACC-62 melanoma", "value": 74.9, "unit": "µM"}, {"measurement": "TGI", "setting": "U251 CNS", "value": "> 100", "unit": "µM"}, {"measurement": "TGI", "setting": "SW-620 colon", "value": "> 100", "unit": "µM"}, {"measurement": "TGI", "setting": "PC-3 prostate", "value": "> 100", "unit": "µM"}, {"measurement": "TGI", "setting": "KM12 colon", "value": "> 100", "unit": "µM"}, {"measurement": "TGI", "setting": "OVCAR-4 ovarian", "value": "> 100", "unit": "µM"}, {"measurement": "TGI", "setting": "SK-OV-3 ovarian", "value": "> 100", "unit": "µM"}, {"measurement": "TGI", "setting": "LOX IMVI melanoma", "value": "> 100", "unit": "µM"}]}
{"smiles": "c1ccc2c(c1)CC1c3[nH]c4ccccc4c3CCN21", "note": "(configuration not stated)", "values": [{"measurement": "TGI", "setting": "SNB-75 CNS", "value": "> 10", "unit": "µM"}, {"measurement": "TGI", "setting": "HCC-2998 colon", "value": "> 10", "unit": "µM"}, {"measurement": "TGI", "setting": "UACC-62 melanoma", "value": "> 10", "unit": "µM"}, {"measurement": "TGI", "setting": "U251 CNS", "value": "> 10", "unit": "µM"}, {"measurement": "TGI", "setting": "SW-620 colon", "value": "> 10", "unit": "µM"}, {"measurement": "TGI", "setting": "PC-3 prostate", "value": "> 10", "unit": "µM"}, {"measurement": "TGI", "setting": "KM12 colon", "value": "> 10", "unit": "µM"}, {"measurement": "TGI", "setting": "OVCAR-4 ovarian", "value": "> 10", "unit": "µM"}, {"measurement": "TGI", "setting": "SK-OV-3 ovarian", "value": "> 10", "unit": "µM"}, {"measurement": "TGI", "setting": "LOX IMVI melanoma", "value": "> 10", "unit": "µM"}]}
{"smiles": "C=C(CCOC)CCC1CCCCC(=C)C1=O", "note": "(configuration not stated)", "values": [{"measurement": "TGI", "setting": "SNB-75 CNS", "value": "> 100", "unit": "µM"}, {"measurement": "TGI", "setting": "HCC-2998 colon", "value": "> 100", "unit": "µM"}, {"measurement": "TGI", "setting": "UACC-62 melanoma", "value": "> 100", "unit": "µM"}, {"measurement": "TGI", "setting": "U251 CNS", "value": "> 100", "unit": "µM"}, {"measurement": "TGI", "setting": "SW-620 colon", "value": "> 100", "unit": "µM"}, {"measurement": "TGI", "setting": "PC-3 prostate", "value": "> 100", "unit": "µM"}, {"measurement": "TGI", "setting": "KM12 colon", "value": "> 100", "unit": "µM"}, {"measurement": "TGI", "setting": "OVCAR-4 ovarian", "value": "> 100", "unit": "µM"}, {"measurement": "TGI", "setting": "SK-OV-3 ovarian", "value": "> 100", "unit": "µM"}, {"measurement": "TGI", "setting": "LOX IMVI melanoma", "value": "> 100", "unit": "µM"}]}
